Source: patent US5880128A, “Carbonyl piperazinyl and piperidinyl compounds” (Schering Corporation, priority 1996, dated 1999)

Target: farnesyl protein transferase (FPT)
Test: In vitro enzyme assay: inhibition of farnesyl protein transferase (FPT, FTase)
Type: biochemical, rat; human
Conditions: concentration of compound which inhibits 50% of FPT transferase
Description: 1. In vitro enzyme assays: Inhibition of farnesyl protein transferase and geranylgeranyl protein transferase.
Both farnesyl protein transferase (FPT) and geranylgeranyl protein transferase (GGPT) I are partially purified from rat brain by ammonium sulfate fractionation followed by Q-Sepharose (Pharmacia, Inc.) anion exchange chromatography essentially as described by Yokoyama et al (Yokoyama, K., et al., (1991), A protein geranylgeranyltransferase from bovine brain: Implications for protein prenylation specificity, Proc. Natl. Acad. Sci USA 88: 5302-5306, the disclosure of which is incorporated herein by reference thereto). Human farnesyl protein transferase is also expressed in E. coli, using cDNA clones encoding both the α and β subunits. The methods used are similar to those published (Omer, C. et al., (1993), Characterization of recombinant human farnesyl protein transferase: Cloning, expression, farnesyl diphosphate binding, and functional homology with yeast prenyl-protein transferases, Biochemistry 32:5167-5176). Human farnesyl protein transferase is partially-purified from the soluble protein fraction of E. coli as described above. The farnesyl protein transferase inhibitors disclosed herein may inhibit both human and rat enzyme with similar potencies. Two forms of val^12 -Ha-Ras protein are prepared as substrates for these enzymes, differing in their carboxy terminal sequence. One form terminates in cysteine-valine-leucine-serine (Ras-CVLS) the other in cystein-valine-leucine-leucine (Ras-CVLL). Ras-CVLS is a substrate for the farnesyl protein transferase while Ras-CVLL is a substrate for geranylgeranyl protein transferase I. The cDNAs encoding these proteins are constructed so that the proteins contain an amino-terminal extension of 6 histidine residues. Both proteins are expressed in Escherichia coli and purified using metal chelate affinity chromatography. The radiolabelled isoprenyl pyrophosphate substrates, [^3 H]farnesyl pyrophosphate and [^3 H]geranylgeranyl pyrophosphate, are purchased from a commercial source, such as DuPont/New England Nuclear.
Several methods for measuring farnesyl protein transferase activity are known (Reiss et al 1990, Cell 62: 81; Schaber et al 1990, J. Biol. Chem. 265: 14701; Manne et al 1990, PNAS 8: 7541; and Barbacid & Manne 1993, U.S. Pat. No. 5,185,248). […] Filter mats are washed once with 6% TCA, 2% SDS and radioactivity is measured in a Wallac 1204 Betaplate BS liquid scintillation counter. Percent inhibition is calculated relative to the DMSO vehicle control. […]

Which IC50 does the source give for `Cc1c(C)c(C)c(C(=O)C2CCN(C(=O)Cc3ccncc3)CC2)c(C)c1C` here?
The IC50 was 12.1 µM.

`O=C(c1ccc(F)cc1)C1CCN(C(=O)Cc2ccncc2)CC1` was tested. Which IC50 did it give?
The IC50 was greater than 60 µM.

Which IC50 does the source give for `O=C(c1ccc(Cl)cc1)C1CCN(C(=O)Cc2ccncc2)CC1` here?
The IC50 was 60 µM.

For `O=C(c1ccccc1)C1CCN(C(=O)Cc2ccncc2)CC1`, which IC50 is on record?
The IC50 was greater than 60 µM.
